Reference: US8993585B2, “Cyclic amine substituted pyrimidinediamines as PKC inhibitors” (Rigel Pharmaceuticals, Inc., priority 2007, dated 2015)

Test system: Human primary T cells
Experiment: IL-2 ELISA, Human Primary T Cell, Anti-CD3+CD28+ (Example 3)
Assay type: cell-based
Settings: Homo sapiens, T-cell, 24 h, anti-CD3+CD28 stimulation
Experimental: Human primary T cell isolation and culture: Human primary T cells were prepared as follows. […] The cells at the serum:ficoll interface were recovered and washed twice with 5 volumes of PBS. […] The primary T-cells were then washed twice with PBS to remove the IL-2.
Primary T cell stimulation and IL2 ELISA: Human primary T cells (100,000 cells per well) were pre-incubated with or without test compound in Yssel's medium for 1 hr at 37° C. Cells were then stimulated by transferring them to round-bottom 96-well plates pre-coated with 1 ug/ml αCD3 and 5 μg/ml αCD28. For counter assay, cells were instead stimulated by adding 8× stock solutions of PMA and ionomycin in Yssels (for final concentrations of 0.5 ng/ml PMA and 0.1 uM ionomycin, both from Calbiochem).

| Structure (SMILES) | IC50 [nM] |
| --- | --- |
| CC1(C)CC(Nc2nc(Nc3cc(Cl)cc(Cl)c3)ncc2F)CC(C)(C)N1CCC(=O)O [Compound I-304] | 9510 |
| C#Cc1cnc(Nc2cc(OC)cc(OC)c2)nc1NC1CC(C)(C)N(C)C(C)(C)C1 [Compound I-433] | 2350 |
| Cc1ccc(C)n1-c1cc(Nc2ncc(F)c(NC3CC(C)(C)N(C)C(C)(C)C3)n2)ccc1OCCN1CCOCC1 [Compound I-439] | 620 |
| COc1ccc(Nc2ncc(F)c(N(Cc3ccccc3)C3CC(C)(C)N(C)C(C)(C)C3)n2)cc1OC(F)F [Compound I-309] | 642 |

Now from value to molecule:

| IC50 [nM] | Structure (SMILES) |
| --- | --- |
| 2940 | CCn1c(=O)oc2ccc(Nc3ncc(F)c(NC4CC(C)(C)NC(C)(C)C4)n3)cc21 [II-174] |
| 168 | CC(C)N1C(=O)COc2cc(Nc3ncc(F)c(NC4CC(C)(C)N(C)C(C)(C)C4)n3)ccc21 [II-61] |
| 2570 | CN1C(C)(C)CC(Nc2nc(Nc3ncc([N+](=O)[O-])s3)ncc2F)CC1(C)C [II-14] |
| 38.3 | CN1C(=O)C(C)(C)Sc2cc(Nc3ncc(F)c(NC4CC(C)(C)N(C)C(C)(C)C4)n3)ccc21 [II-62] |
| 16000 | CN1C(C)(C)CC(Nc2nc(Nc3nc(C(F)(F)F)co3)ncc2F)CC1(C)C [II-134] |
| 1470 | CN1C(C)(C)CC(Nc2nc(Nc3ccc4c(c3)OCCCO4)ncc2F)CC1(C)C [II-43] |
| 827 | CN1C(C)(C)CC(Nc2nc(Nc3ccc4[nH]ncc4c3)ncc2F)CC1(C)C [II-38] |
| 1240 | CN(C)CCN1C(=O)C(C)(C)Oc2cc(Nc3ncc(F)c(NC4CC(C)(C)N(C)C(C)(C)C4)n3)ccc21 [II-49] |
| 1030 | CN1C(C)(C)CC(Nc2nc(Nc3nc(-c4ccc(NS(=O)(=O)c5ccc(Cl)cc5)cc4)cs3)ncc2F)CC1(C)C [II-142] |
| 17900 | CN1CCN(C(=O)C2COc3cc(Nc4ncc(F)c(NC5CC(C)(C)NC(C)(C)C5)n4)ccc3O2)CC1 (centres unmarked) [II-160] |
| 7200 | CN1CCN(C(=O)C2COc3cc(Nc4ncc(F)c(NC5CC(C)(C)N(C)C(C)(C)C5)n4)ccc3O2)CC1 (centres unmarked) [II-158] |
| 1610 | CN1C(C)(C)CC(Nc2nc(Nc3ccc4cnn(C)c4c3)ncc2F)CC1(C)C [II-41] |
| 11300 | CN1C(C)(C)CC(Nc2nc(Nc3ccc4c(n3)NCCO4)ncc2F)CC1(C)C [II-24] |
| 2180 | CN1C(C)(C)CC(Nc2nc(Nc3ccc4c(c3)oc(=O)n4CCN3CCOCC3)ncc2F)CC1(C)C [II-167] |
| 678 | CN1C(C)(C)CC(Nc2nc(Nc3ccc4c(c3)oc(=O)n4C)ncc2F)CC1(C)C [II-36] |
| 910 | CN1C(C)(C)CC(Nc2nc(Nc3nc(-c4ccc(Oc5ccccc5)cc4)cs3)ncc2F)CC1(C)C [II-139] |

Same assay, conditions: T-cell, anti-CD3+CD28 stimulation, 24 hours

| Structure (SMILES) | IC50 [nM] |
| --- | --- |
| COc1cc(Nc2ncc(C#C[Si](C)(C)C)c(NC3CC(C)(C)N(C)C(C)(C)C3)n2)cc(OC)c1 [Compound I-430] | 4470 |

Same assay, conditions: anti-CD3+CD28 stimulation, 24 hours

| Structure (SMILES) | IC50 [nM] |
| --- | --- |
| Cc1nnnn1-c1cccc(Nc2ncc(F)c(NC3CC(C)(C)NC(C)(C)C3)n2)c1 [Compound I-414] | 160 |
| CN1C(C)(C)CC(Nc2nc(Nc3ccc(N4CCOCC4)c(C(F)(F)F)c3)ncc2Cl)CC1(C)C [Compound I-241] | 361 |
| CN1C(C)(C)CC(Nc2nc(Nc3ccc4cn[nH]c4c3)ncc2F)CC1(C)C [II-40] | 2970 |
| COc1cc(Nc2ncc(F)c(NC3CC(C)(C)N(C)C(C)(C)C3)n2)ccc1N1CCN(C)CC1 [Compound I-55] | 1570 |
| CN1C(C)(C)CC(Nc2nc(Nc3ccc(F)c(F)c3)ncc2F)CC1(C)C [Compound I-21] | 414 |
| CN1C(C)(C)CC(Nc2nc(Nc3cccc(-c4cnn(C)c4)c3)ncc2F)CC1(C)C [Compound I-143] | 1410 |
| CN1C(C)(C)CC(Nc2nc(Nc3ccc(F)c(-c4cnn(C)c4)c3)ncc2F)CC1(C)C [Compound I-182] | 675 |
| CN1C(C)(C)CC(Nc2nc(Nc3cccc(C(N)=O)c3)ncc2F)CC1(C)C [Compound I-24] | 1520 |
| COc1ccc(Nc2ncc(F)c(NC3CC(C)(C)N(C)C(C)(C)C3)n2)cc1-c1ccncc1 [Compound I-193] | 653 |
| COc1cc(Nc2ncc(C#N)c(NC3CC(C)(C)NC(C)(C)C3)n2)cc(-n2nnnc2C)c1 [Compound I-402] | 470 |
| COc1ccc(Nc2ncc(F)c(NC3CCC(C)(C)N(C)C(C)(C)C3)n2)cc1Cl (centres unmarked) [Compound I-262, 5-Fluoro-N2-[3-chloro-4-methoxy]phenyl-N4-(1,2,2,7,7-pentamethylazepan-4-yl)-2,4-pyrimidinediamine] | 14800 |
| CN(c1nc(Nc2cccc(C#N)c2)ncc1F)C1CC(C)(C)N(C)C(C)(C)C1 [Compound I-66] | 1460 |
| COc1ccc(Nc2ncc(C)c(NC3CC(C)(C)N(C)C(C)(C)C3)n2)cc1Cl [Compound I-27] | 497 |
| CN1C(C)(C)CC(Nc2nc(Nc3ccc(C(N)=O)cc3)ncc2F)CC1(C)C [Compound I-23] | 1680 |
| CN1CCN(c2ccc(Nc3ncc(F)c(NC4CC(C)(C)NC(C)(C)C4)n3)cc2Cl)CC1 [Compound I-256] | 246 |
| CN1C(C)(C)CC(Nc2nc(Nc3ccc(F)c(-c4cc5ccccc5s4)c3)ncc2F)CC1(C)C [Compound I-181] | 1320 |
| CN1C(C)(C)CC(Nc2nc(Nc3ccc(F)c(-c4ccoc4)c3)ncc2F)CC1(C)C [Compound I-192] | 941 |
| CN1C(C)(C)CC(Nc2nc(Nc3ccc(N4CCOCC4)c(Cl)c3)ncc2F)CC1(C)C [Compound I-335] | 563 |
| COc1cc(Nc2ncc(F)c(NC3CC(C)(C)N(C)C(C)(C)C3)n2)ccc1NC(=O)c1ccco1 [Compound I-353] | 1540 |

| Structure (SMILES) | IC50 [nM] |
| --- | --- |
| CN1C(C)(C)CC(Nc2nc(Nc3cc(-c4cc5ccccc5s4)cc(C(F)(F)F)c3)ncc2F)CC1(C)C [Compound I-205] | 965 |
| CN1CCN(c2ccc(Nc3ncc(F)c(NC4CC(C)(C)N(C)C(C)(C)C4)n3)cc2C(N)=O)CC1 [Compound I-53] | 1940 |
| COc1ccc(Nc2ncc(C(N)=O)c(NC3CC(C)(C)N(C)C(C)(C)C3)n2)cc1Cl [Compound I-85] | 631 |
| CN1CCN(C(=O)c2ccc(Nc3ncc(F)c(NC4CC(C)(C)N(C)C(C)(C)C4)n3)cc2C(F)(F)F)CC1 [Compound I-64] | 2600 |
| COc1ccc(Nc2ncc(F)c(NC3CC(C)(C)N(CCC(=O)O)C(C)(C)C3)n2)cc1C(F)(F)F [Compound I-305] | 17900 |
| CN1C(C)(C)CC(Nc2nc(Nc3cc(Cl)cc(Cl)c3)ncc2F)C1(C)C (centres unmarked) [Compound I-279, 5-Fluoro-N2-(3,5-dichloro) phenyl-N4-(1,2,2,5,5-pentamethylpyrrolidin-3-yl)-2,4-pyrimidinediamine] | 7440 |
| CN1CCN(c2ccc(Nc3ncc(F)c(NC4CCC(C)(C)N(C)C(C)(C)C4)n3)cc2C(F)(F)F)CC1 (centres unmarked) [Compound I-270, 5-Fluoro-N2-[4-methylpiperizine-3-trifluoromethyl]phenyl-N4-(1,2,2,7,7-pentamethylazepan-4-yl)-2,4-pyrimidinediamine] | 3450 |
| COc1ccc(Nc2ncc(Br)c(NC3CC(C)(C)N(C)C(C)(C)C3)n2)cc1OC [Compound I-274] | 1210 |
| CN1C(C)(C)CCC(Nc2nc(Nc3ccc(N4CCN(S(C)(=O)=O)CC4)c(C(F)(F)F)c3)ncc2F)CC1(C)C (centres unmarked) [Compound I-264, 5-Fluoro-N2-[4-methylsulfonylpiperazin-lyl-3-trifluoromethyl]phenyl-N4-(1,2,2,7,7-pentamethylazepan-4-yl)-2,4-pyrimidinediamine] | 4300 |
| COc1ccc(Nc2ncc(F)c(NC3CC(C)(C)N(C)C3(C)C)n2)cc1Cl (centres unmarked) [Compound I-280, 5-Fluoro-N2-(3-chloro-4-methoxy)phenyl-N4-(1,2,2,5,5-pentamethylpyrrolidin-3-yl)-2,4-pyrimidinediamine] | 2730 |
| CN1CCN(c2ccc(Nc3ncc(F)c(NC4CC(C)(C)N(C)C4(C)C)n3)cc2C(F)(F)F)CC1 (centres unmarked) [Compound I-285, 5-Fluoro-N2-[4-(4-methylpiperazin-1-yl)-3-(trifluoromethyl)]phenyl-N4-(1,2,2,5,5-pentamethylpyrrolidin-3-yl)-2,4-pyrimidinediamine] | 1230 |
| CN1C(C)(C)CC(Nc2nc(Nc3ccc(-n4cccc4)c(C#N)c3)ncc2C#N)CC1(C)C [Compound I-206] | 1030 |
| COc1cc(Nc2ncc(F)c(NC3CC(C)(C)NC(C)(C)C3)n2)cc(-n2cnnn2)c1 [Compound I-388] | 110 |
| CN1CC2(C)CN(c3ccc(Nc4ncc(F)c(NC5CC(C)(C)N(C)C(C)(C)C5)n4)cc3C(F)(F)F)CC(C)(C1)C2 [Compound I-259] | 2540 |
| COc1ccc(Nc2ncc(F)c(NC3CC(C)(C)N(C)C(C)(C)C3)n2)cc1-c1cc2ccccc2s1 [Compound I-195] | 1120 |
| CN1C(C)(C)CC(Nc2nc(Nc3ccc(NC(=O)c4ccco4)c(Cl)c3)ncc2Cl)CC1(C)C [Compound I-351] | 198 |
| Cc1ccc(Nc2ncc(F)c(NC3CC(C)(C)N(C)C(C)(C)C3)n2)cc1-n1cnnn1 [Compound I-398] | 50 |
| CCOC(=O)c1cnc(Nc2ccc(N3CCN(S(C)(=O)=O)CC3)c(C(F)(F)F)c2)nc1NC1CC(C)(C)N(C)C(C)(C)C1 [Compound I-83] | 7760 |
| CN1C(C)(C)CC(Nc2nc(Nc3ccc(NC(=O)c4ccco4)c(C(F)(F)F)c3)ncc2F)CC1(C)C [Compound I-355] | 893 |

The next lines start with the values.

| IC50 [nM] | Structure (SMILES) |
| --- | --- |
| 407 | CN1C(C)(C)CC(Nc2nc(Nc3ccc4c(c3)OC(C)(C)C(=O)N4)ncc2F)CC1(C)C [II-33] |
| 440 | CCCN1C(=O)C2(CCC2)Oc2cc(Nc3ncc(F)c(NC4CC(C)(C)N(C)C(C)(C)C4)n3)ccc21 [II-166] |
| 2610 | CN1CCN(c2ccc(Nc3ncc(F)c(NC4CCN(CCO)CC4)n3)cc2Cl)CC1 [III-8, N2-[3-Chloro-4-(4-methylpiperazino)]phenyl-5-fluoro-N4-[1-(2-hydroxyethyl)piperidin-4-yl]-2,4-pyrimidinediamine] |
